Organism: Rattus norvegicus
Assay: DrugMatrix - Regimen: Daily Repeat
Type: toxicity, organism-based, Sprague-Dawley
Set-up: regimen Daily Repeat, gender Male, age 6-8 weeks
Conditions: in vivo, po, route oral GAVAGE, vehicle .5 % CMC; for ABSOLUTE BASOPHIL / ABSOLUTE EOSINOPHIL / ABSOLUTE LYMPHOCYTE / ABSOLUTE MONOCYTE / ABSOLUTE SEGMENTED NEUTROPHIL / BASOPHIL / EOSINOPHIL / ERYTHROCYTE COUNT / HEMATOCRIT / HEMOGLOBIN / LEUKOCYTE COUNT / LYMPHOCYTE / MEAN CORPUSCULAR HEMOGLOBIN / MEAN CORPUSCULAR HEMOGLOBIN CONCENTRATION / MEAN CORPUSCULAR VOLUME / MONOCYTE / NEUTROPHIL / NUCLEATED RED BLOOD CELLS / PLATELET COUNT: tissue Blood; for ALANINE AMINOTRANSFERASE / ALBUMIN / ALKALINE PHOSPHATASE / ASPARTATE AMINOTRANSFERASE / BLOOD UREA NITROGEN / CARBON DIOXIDE / CHLORIDE / CHOLESTEROL / CREATINE PHOSPHOKINASE / CREATININE / GLUCOSE / LACTATE DEHYDROGENASE / LIPASE / PHOSPHORUS / POTASSIUM / SODIUM / TOTAL BILIRUBIN / TOTAL PROTEIN / URIC ACID: tissue Plasma
[1] = 0 mg/kg, 72 h, dose level Control, time 3 day
[2] = 0 mg/kg, 120 h, dose level Control, time 5 day
[3] = 3 mg/kg, 72 h, dose level Low, time 3 day

COc1nc(C)nc(Cl)c1N=C1NCCN1 [MOXONIDINE]
ABSOLUTE BASOPHIL [1]: 0 CELLS/uL | ABSOLUTE EOSINOPHIL [1]: 47.67 CELLS/uL | ABSOLUTE LYMPHOCYTE [1]: 15937.67 CELLS/uL | ABSOLUTE MONOCYTE [1]: 138.33 CELLS/uL | ABSOLUTE SEGMENTED NEUTROPHIL [1]: 1443 CELLS/uL | BASOPHIL [1]: 0% | EOSINOPHIL [1]: 0.33% | ERYTHROCYTE COUNT [1]: 5.45 x10E6/uL | HEMATOCRIT [1]: 34.43% | HEMOGLOBIN [1]: 13.38 G/DL | LEUKOCYTE COUNT [1]: 17.57 x10E3/uL | LYMPHOCYTE [1]: 90.33% | MEAN CORPUSCULAR HEMOGLOBIN [1]: 24.6 pg | MEAN CORPUSCULAR HEMOGLOBIN CONCENTRATION [1]: 38.88 G/DL | MEAN CORPUSCULAR VOLUME [1]: 63.27 fL | MONOCYTE [1]: 0.83% | NEUTROPHIL [1]: 8.5% | NUCLEATED RED BLOOD CELLS [1]: 0 /100WBC | PLATELET COUNT [1]: 1298 x10E3/uL | ALANINE AMINOTRANSFERASE [1]: 47.67 u/L | ALBUMIN [1]: 4.18 G/DL | ALKALINE PHOSPHATASE [1]: 398.5 u/L | ASPARTATE AMINOTRANSFERASE [1]: 93.17 u/L | BLOOD UREA NITROGEN [1]: 16 mg/dL | CARBON DIOXIDE [1]: 29.17 mmol/L | CHLORIDE [1]: 98.17 MEQ/L | CHOLESTEROL [1]: 68.83 mg/dL | CREATINE PHOSPHOKINASE [1]: 467.33 u/L | CREATININE [1]: 0.14 mg/dL | GLUCOSE [1]: 151.67 mg/dL | LACTATE DEHYDROGENASE [1]: 597.5 u/L | LIPASE [1]: 9.33 u/L | PHOSPHORUS [1]: 11.97 mg/dL | POTASSIUM [1]: 6.43 MEQ/L | SODIUM [1]: 140.68 MEQ/L | TOTAL BILIRUBIN [1]: 0.18 mg/dL | TOTAL PROTEIN [1]: 5.82 G/DL | URIC ACID [1]: 1.48 mg/dL | ABSOLUTE BASOPHIL [2]: 0 CELLS/uL | ABSOLUTE EOSINOPHIL [2]: 31 CELLS/uL | ABSOLUTE LYMPHOCYTE [2]: 14327.83 CELLS/uL | ABSOLUTE MONOCYTE [2]: 102.83 CELLS/uL | ABSOLUTE SEGMENTED NEUTROPHIL [2]: 1321.67 CELLS/uL | BASOPHIL [2]: 0% | EOSINOPHIL [2]: 0.17% | ERYTHROCYTE COUNT [2]: 5.79 x10E6/uL | HEMATOCRIT [2]: 36.1% | HEMOGLOBIN [2]: 14.15 G/DL | LEUKOCYTE COUNT [2]: 15.78 x10E3/uL | LYMPHOCYTE [2]: 90.5% | MEAN CORPUSCULAR HEMOGLOBIN [2]: 24.48 pg | MEAN CORPUSCULAR HEMOGLOBIN CONCENTRATION [2]: 39.22 G/DL | MEAN CORPUSCULAR VOLUME [2]: 62.4 fL | MONOCYTE [2]: 0.67% | NEUTROPHIL [2]: 8.67% | NUCLEATED RED BLOOD CELLS [2]: 0.17 /100WBC | PLATELET COUNT [2]: 1211.67 x10E3/uL | ALANINE AMINOTRANSFERASE [2]: 49 u/L | ALBUMIN [2]: 4.27 G/DL | ALKALINE PHOSPHATASE [2]: 356.67 u/L | ASPARTATE AMINOTRANSFERASE [2]: 90.17 u/L | BLOOD UREA NITROGEN [2]: 20.5 mg/dL | CARBON DIOXIDE [2]: 29.17 mmol/L | CHLORIDE [2]: 98 MEQ/L | CHOLESTEROL [2]: 69.83 mg/dL | CREATINE PHOSPHOKINASE [2]: 312 u/L | CREATININE [2]: 0.21 mg/dL | GLUCOSE [2]: 149.83 mg/dL | LACTATE DEHYDROGENASE [2]: 322 u/L | LIPASE [2]: 10 u/L | PHOSPHORUS [2]: 12 mg/dL | POTASSIUM [2]: 6.75 MEQ/L | SODIUM [2]: 142.8 MEQ/L | TOTAL BILIRUBIN [2]: 0.17 mg/dL | TOTAL PROTEIN [2]: 6.1 G/DL | URIC ACID [2]: 1.68 mg/dL | ABSOLUTE BASOPHIL [3]: 0 CELLS/uL | ABSOLUTE EOSINOPHIL [3]: 88 CELLS/uL | ABSOLUTE LYMPHOCYTE [3]: 13570 CELLS/uL | ABSOLUTE MONOCYTE [3]: 44 CELLS/uL | ABSOLUTE SEGMENTED NEUTROPHIL [3]: 1298 CELLS/uL | BASOPHIL [3]: 0% | EOSINOPHIL [3]: 0.67% | ERYTHROCYTE COUNT [3]: 5.63 x10E6/uL | HEMATOCRIT [3]: 34.87% | HEMOGLOBIN [3]: 13.07 G/DL | LEUKOCYTE COUNT [3]: 15 x10E3/uL | LYMPHOCYTE [3]: 89.67% | MEAN CORPUSCULAR HEMOGLOBIN [3]: 23.2 pg | MEAN CORPUSCULAR HEMOGLOBIN CONCENTRATION [3]: 37.5 G/DL | MEAN CORPUSCULAR VOLUME [3]: 61.9 fL | MONOCYTE [3]: 0.33% | NEUTROPHIL [3]: 9.33% | NUCLEATED RED BLOOD CELLS [3]: 0 /100WBC | PLATELET COUNT [3]: 1254.67 x10E3/uL | ALANINE AMINOTRANSFERASE [3]: 48 u/L | ALBUMIN [3]: 4 G/DL | ALKALINE PHOSPHATASE [3]: 327.67 u/L | ASPARTATE AMINOTRANSFERASE [3]: 95 u/L | BLOOD UREA NITROGEN [3]: 17 mg/dL | CARBON DIOXIDE [3]: 29 mmol/L | CHLORIDE [3]: 99.33 MEQ/L | CHOLESTEROL [3]: 69.67 mg/dL | CREATINE PHOSPHOKINASE [3]: 328.67 u/L | CREATININE [3]: 0.17 mg/dL | GLUCOSE [3]: 144 mg/dL | LACTATE DEHYDROGENASE [3]: 269.67 u/L | LIPASE [3]: 10.33 u/L | PHOSPHORUS [3]: 12.07 mg/dL | POTASSIUM [3]: 5.9 MEQ/L | SODIUM [3]: 142.9 MEQ/L | TOTAL BILIRUBIN [3]: 0.23 mg/dL | TOTAL PROTEIN [3]: 5.53 G/DL | URIC ACID [3]: 1.4 mg/dL

— ChEMBL document CHEMBL3885881, “DrugMatrix”
